Results taken from publication PMC8658989, “Synthesis and Biological Studies on (KLAKLAK)2-NH2 Analog Containing Unnatural Amino Acid β-Ala and Conjugates with Second Pharmacophore” (Molecules, 2021).
Like-named read-outs stand apart in the source and are kept apart here. Non-standard residues stand in square brackets, D forms with d. Residues, ends and D or L forms follow the SMILES beside them. *: point of attachment. Acetyl(1,8-naphthalimido) = O=C1c2cccc3cccc(c23)C(=O)N1CC(=O)*; Caffeoyl = O=C(/C=C/c1ccc(O)c(O)c1)*; βAla = NCCC(=O)O

Tests used:
Candida albicans 74 = experiment: Antimicrobial assay, agar/disc diffusion, C. albicans; format: cell-based; conditions: 6 μL of 20 μM solution on 6 mm paper disc, 24 h
Method: (§1) The microbial cultures were placed in a thin layer on sterile plates. On sterile paper discs, 6 μL of 20 μM solutions in distilled water of the test compounds was placed. Further, the discs were incorporated into a thin layer of sterile plates (Figure 3). The studies were triplicates for each concentration, and the diameters of the obtained zones represent the average value of the three results.
(§2) All newly synthesized derivatives of (KLAKLAK)2-NH2 at concentrations of 20 μM in distilled water were tested against model strains E. coli NBIMCC K12 407, B. subtilis NBIMCC 3562 and C. albicans NBIMCC 74. The strains were obtained from the National Bank for Industrial Microorganisms and Cell Cultures (NBIMCC, Sofia, Bulgaria). Exponential cultures (1 × 10^7 cfu/mL) of strains E. coli K12 407 were obtained in Luria-Bertani (LB, HiMedia, Mumbai, India); for B. subtilis 3562, an initial bacterial concentration of 1 × 10^6 cfu/mL was obtained in nutrient broth (NB, HiMedia, Mumbai, India); and for C. albicans 74, and initial bacterial concentration of 1 × 10^5 cfu/mL was obtained in yeast mold (YM) medium. Cultivation was performed in an ES-20/60 incubator shaker (Biosan, Riga, Latvia) at 30 °C for B. subtilis 3562 and at 37 °C for E. coli K12 407 and C. albicans 74 with shaking at 220 rpm for 24 h. The agar diffusion method was applied to determine the antimicrobial activity of the tested compounds. LB/NB/YM plates were inoculated by spreading 100 μL of each microbial culture on their surface, followed by incubation at 30/37 °C for penetration of suspension into the agar. After 30 min, sterile paper discs (6 mm in diameter) were soaked with the tested compounds in amounts of 6 µL and placed on the surface of agar Petri dishes. The plates were incubated at 30/37 °C for 24 h. Antimicrobial activity was assessed by measuring the diameter of the obtained inhibition zones. Sterile paper discs soaked with water were used as blank controls. Mean values were calculated by performing the experiments in triplicates.

MDA-MB-231 = experiment: Antiproliferative activity, MTT dye-reduction assay, MDA-MB-231; format: cell-based, human; conditions: for IC50: MTT, 72 h, read-out: IC50 of Mean ± SD Antiproliferative Activity MDA-MB-231; for SI ± SD MDA-MB-231 (selective index): SI = IC50 of MCF-10A/IC50 of MDA-MB-231
Method: (§3) The compounds were studied for antiproliferative activity by MTT dye-reduction assay. Cell cultures from different cell lines (MCF-10A, MCF-7 and MDA-MB-231) were incubated with the test substances at a concentration of 15 to 2000 μM for 72 h at 37 °C, 5% CO2 and 95% humidity. The antiproliferative activity expressed in % relative to the negative control was determined.
(§4) The antiproliferative activity testing was performed on cell cultures from several human cell lines using the standard MTT dye-reduction assay, described by Mosmann. The assay is based on the metabolism of the tetrazolium salt 3-(4,5-dimethylthiazol-2-yl)-2,5-diphenyltetrazolium bromide (MTT) to insoluble formazan by mitochondrial reductases. The formazan concentration can be determined spectrophotometrically. The measured absorption is an indicator of cell viability and metabolic activity. The following cell lines were used in the experiments: mammary gland type A adenocarcinoma ER+, PR+ and HER2− (MCF-7); triple-negative breast cancer ER−, PR−, and HER2− (MDA-MB-231); and breast, nontumorigenic epithelial cell line (MCF-10A). The cell lines were routinely grown as monolayers in 75 cm^2 tissue culture flasks under standard conditions (described above). Cells were plated at a density of 1 × 10^3 cells in 100 µL in each well of 96-well flat-bottomed microplates and allowed to adhere for 24 h before treatment with test compounds. A concentration range from 15 to 2000 μM was applied for 72 h. Formazan absorption was registered using a microplate reader at λ = 540 nm. Antiproliferative activities were expressed as IC50 values (concentrations required for 50% inhibition of cell growth), calculated using nonlinear regression analysis (GraphPad Prism 4 Software, https://www.graphpad.com).

[1] = In vitro cytotoxicity, 3T3 NRU test; format: cell-based; conditions: mouse, BALB/3T3 clone A31 mouse embryo cells, 24 h incubation, 15 to 2000 μM, read-out: IC50 of Mean ± SD Cytotoxicity BALB 3T3 (CC50)
Method: The newly synthesized compounds were studied for cytotoxicity assessment by an in vitro 3T3 NRU test. The cells were incubated with the test substances at a concentration of 15 to 2000 μM for 24 h at 37 °C, 5% CO2 and 95% humidity. The cytotoxicity expressed in % relative to the negative control was determined.
The cytotoxicity testing was performed as described by Borenfreund et al. and the latest modification of the validated BALB/3T3 clone A31 Neutral Red Uptake Assay (3T3 NRU test). BALB/3T3 clone A31 mouse embryo cells were grown as a monolayer in 75 cm^2 tissue culture flasks in high-glucose DMEM (4.5 g/L), supplemented with 10% FBS and antibiotics. Cultures were maintained at 37.5 °C in a humidified atmosphere under 5% CO2. Cells were plated at a density of 1 × 10^4 cells in 100 μL culture medium in each well of 96-well flat-bottomed microplates and allowed to adhere for 24 h before treatment with test compounds, dissolved in DMSO and further diluted in culture medium. A wide concentration range was applied (from 15 to 2000 μM), and the cells were incubated for an additional 24 h. After treatment with Neutral Red medium, washing and application of the ethanol/acetic acid solution (NR Desorb), the absorption was measured on a TECAN microplate reader at wavelength 540 nm. The data obtained are on average from three independent experiments ± SD, n = 6.

MCF-10A = experiment: Antiproliferative activity, MTT dye-reduction assay, MCF-10A; format: cell-based, human; conditions: 72 h, read-out: IC50 of Mean ± SD Antiproliferative Activity MCF-10A
Method: as §3
MCF-10A is a reliable model for normal human mammary epithelial cells, which serves as a control in experiments to determine antitumor activity.
as §4

MCF-7 = experiment: Antiproliferative activity, MTT dye-reduction assay, MCF-7; format: cell-based, human; conditions: for IC50: MTT, 72 h, read-out: IC50 of Mean ± SD Antiproliferative Activity MCF-7; for SI ± SD MCF-7 (selective index): SI = IC50 of MCF-10A/IC50 of MCF-7
Method: as §3, §4

[2] = Hydrolytic stability in model buffer solutions by HPLC; format: physicochemical; conditions: 72 h, model buffer solutions pH 2, pH 7.4 and pH 9, HPLC
Method: HPLC profiles of all target compounds at three different pH values that mimic human pH in the stomach (pH 2), blood plasma (pH 7.4) and small intestine (pH 9) are presented in the Supplementary Materials.
The designed changes in the structures, i.e., C-terminal amide modification, as well as the introduction of a β-Ala moiety, lead to complete stability of the target compounds during the test period in all model conditions.
The obtained solution was made up to 1000.0 mL with dH2O; • (ii) Buffer with pH 7.4–2.38 g Na2HPO4, 0.19 g KH2PO4 and 8.0 g NaCl was dissolved in dH2O. The obtained solution was made up to 1000.0 mL with dH2O. • (iii) Buffer with pH 9.0–1000.0 mL of solution I was mixed with 420.0 mL of solution II. Solution I: 6.18 g of H3BO3 was dissolved in 0.1 mol/L KCl, and it was made up to 1000.0 mL with the same solvent; Solution II: 0.1 mol/L NaOH.

Bacillus subtilis 3562 = experiment: Antimicrobial assay, agar/disc diffusion, B. subtilis; format: cell-based; conditions: 6 μL of 20 μM solution on 6 mm paper disc, 24 h
Method: as §1, §2

Escherichia coli K12 407 = experiment: Antimicrobial assay, agar/disc diffusion, E. coli; format: cell-based; conditions: 6 μL of 20 μM solution on 6 mm paper disc, 24 h
Method: as §1, §2

CC(C)C[C@H](NC(=O)[C@H](CCCCN)NC(=O)CN1C(=O)c2cccc3cccc(c23)C1=O)C(=O)N[C@@H](C)C(=O)N[C@@H](CCCCN)C(=O)N[C@@H](CC(C)C)C(=O)N[C@@H](C)C(=O)N[C@@H](CCCCN)C(=O)N[C@@H](CCCCN)C(=O)N[C@@H](CC(C)C)C(=O)N[C@@H](C)C(=O)N[C@@H](CCCCN)C(=O)N[C@@H](CC(C)C)C(=O)N[C@@H](C)C(=O)N[C@@H](CCCCN)C(N)=O [Si9, 1,8-NphtG-(KLAKLAK)2-NH2]
Inhibition zones size, Candida albicans 74 (Candida albicans 74): 20.66 ± 0.45 mm
IC50 (MDA-MB-231): 179 ± 2.92 µM
SI ± SD MDA-MB-231 (selective index) (MDA-MB-231): 0.553 ± 0.037
CC50 at 24 h [1]: 185 ± 4.4 µM
IC50 (MCF-10A): 99.1 ± 5.59 µM
IC50 (MCF-7; listed as Si 9): 45.2 ± 4.15 µM
IC50 (MCF-7): 45 ± 4.2 µM
SI ± SD MCF-7 (selective index) (MCF-7): 2.19 ± 0.147
SI ± SD MCF-7 (selective index) (MCF-7; listed as Si 9): 2.192 ± 0.147
Hydrolytic stability [2]: complete hydrolytic stability
Inhibition zones size, Bacillus subtilis 3562 (Bacillus subtilis 3562): 13.50 ± 0.34 mm
Inhibition zones size, Escherichia coli K12 407 (Escherichia coli K12 407): 11.33 ± 0.26 mm

CC(C)C[C@H](NC(=O)[C@H](CCCCN)NC(=O)/C=C/c1ccc(O)c(O)c1)C(=O)NCCC(=O)N[C@@H](CCCCN)C(=O)N[C@@H](CC(C)C)C(=O)NCCC(=O)N[C@@H](CCCCN)C(=O)N[C@@H](CCCCN)C(=O)N[C@@H](CC(C)C)C(=O)NCCC(=O)N[C@@H](CCCCN)C(=O)N[C@@H](CC(C)C)C(=O)NCCC(=O)N[C@@H](CCCCN)C(N)=O [Si12, Caf-(KLβ-AKLβ-AK)2-NH2] (Caffeoyl-KL[βAla]KL[βAla]KKL[βAla]KL[βAla]K-NH2)
Inhibition zones size, Candida albicans 74 (Candida albicans 74): did not show any antifungal activity
CC50 at 24 h [1]: 880 ± 30.3 µM
Inhibition zones size, Bacillus subtilis 3562 (Bacillus subtilis 3562): good antimicrobial activity
melting point: 160 to 162 °C
Inhibition zones size, Escherichia coli K12 407 (Escherichia coli K12 407): good antimicrobial activity

CC(C)C[C@H](NC(=O)[C@H](CCCCN)NC(=O)CCNC(=O)[C@H](CC(C)C)NC(=O)[C@H](CCCCN)NC(=O)[C@H](CCCCN)NC(=O)CCNC(=O)[C@H](CC(C)C)NC(=O)[C@H](CCCCN)NC(=O)CCNC(=O)[C@H](CC(C)C)NC(=O)[C@@H](N)CCCCN)C(=O)NCCC(=O)N[C@@H](CCCCN)C(N)=O [Si5, (KLβ-AKLβ-AK)2-NH2] (H-KL[βAla]KL[βAla]KKL[βAla]KL[βAla]K-NH2)
Inhibition zones size, Candida albicans 74 (Candida albicans 74): did not show any antifungal activity
Inhibition zones size, Candida albicans 74 (Candida albicans 74; listed as Si 5): 0 mm
IC50 (MDA-MB-231): 1450 ± 15.7 µM
SI ± SD MDA-MB-231 (selective index) (MDA-MB-231): 0.890 ± 0.033
CC50 at 24 h [1]: 1270 ± 70.7 µM
IC50 (MCF-10A): 1290 ± 38.1 µM
IC50 (MCF-7): 1250 ± 34.1 µM
SI ± SD MCF-7 (selective index) (MCF-7): 1.028 ± 0.033
Hydrolytic stability [2]: complete hydrolytic stability
Inhibition zones size, Bacillus subtilis 3562 (Bacillus subtilis 3562): 11.16 ± 0.25 mm
Inhibition zones size, Escherichia coli K12 407 (Escherichia coli K12 407): 11.83 ± 0.27 mm

CC(C)C[C@H](NC(=O)[C@H](CCCCN)NC(=O)CCNC(=O)[C@H](CC(C)C)NC(=O)[C@H](CCCCN)NC(=O)CN1C(=O)c2cccc3cccc(c23)C1=O)C(=O)NCCC(=O)N[C@@H](CCCCN)C(=O)N[C@@H](CCCCN)C(=O)N[C@@H](CC(C)C)C(=O)NCCC(=O)N[C@@H](CCCCN)C(=O)N[C@@H](CC(C)C)C(=O)NCCC(=O)N[C@@H](CCCCN)C(N)=O [Si4, 1,8-NphtG-(KLβ-AKLβ-AK)2-NH2] ({Acetyl(1,8-naphthalimido)}-KL[βAla]KL[βAla]KKL[βAla]KL[βAla]K-NH2)
Inhibition zones size, Candida albicans 74 (Candida albicans 74): good antimicrobial activity
Inhibition zones size, Candida albicans 74 (Candida albicans 74; listed as Si 4): 14.33 ± 0.36 mm
IC50 (MDA-MB-231): 1410 ± 26.2 µM
SI ± SD MDA-MB-231 (selective index) (MDA-MB-231): 0.940 ± 0.049
CC50 at 24 h [1]: 1220 ± 40.5 µM
IC50 (MCF-10A): 1330 ± 69.5 µM
IC50 (MCF-7): 881 ± 80.5 µM
SI ± SD MCF-7 (selective index) (MCF-7): 1.51 ± 0.148
SI ± SD MCF-7 (selective index) (MCF-7; listed as Si 4): 1.505 ± 0.148
Hydrolytic stability [2]: complete hydrolytic stability
Inhibition zones size, Bacillus subtilis 3562 (Bacillus subtilis 3562; listed as S4): 15.83 mm
Inhibition zones size, Escherichia coli K12 407 (Escherichia coli K12 407; listed as S4): 16 mm
